Among the data in BindingDB's records for doi:10.1021/jm0204035 (Glaxosmithkline, 2003) are IC50 values, retold here.

Each structure is given as a SMILES string.

Usually IC50 stands for the concentration at which inhibition is half-maximal. A lower IC50 goes with greater potency.

In assay [1] the target is Trans-2-enoyl-ACP reductase II (Streptococcus pneumoniae, UniProt Q9FBC5). The assay can be described thus: Enzyme Inhibition Assay. The conditions noted are these: 30 °C. The method, then: (§1) Assays were carried out in half-area, 96-well microtiter plates. Compounds were evaluated in assay mixtures containing components specific for each enzyme. Inhibitors were varied over the range 0.01-10 uM. The consumption of NAD(P)H was monitored for 20 min at 30 °C by following the change in absorbance at 340 nm. IC50 values were estimated from a fit of the initial velocities to a standard equation.

Assay [2] deals with T1, Enoyl-[acyl-carrier-protein] reductase [NADH] FabI (Escherichia coli (strain K12), UniProt P0AEK4).
T1 sequence (P0AEK4 whole entry): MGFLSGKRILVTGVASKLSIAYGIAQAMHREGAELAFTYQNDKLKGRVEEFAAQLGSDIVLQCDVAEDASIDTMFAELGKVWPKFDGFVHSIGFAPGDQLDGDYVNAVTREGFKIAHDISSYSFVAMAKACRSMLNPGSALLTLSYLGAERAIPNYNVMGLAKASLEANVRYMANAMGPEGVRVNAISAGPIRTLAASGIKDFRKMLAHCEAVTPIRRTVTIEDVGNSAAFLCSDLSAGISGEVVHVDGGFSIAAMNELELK
The assay can be described thus: Enzyme Inhibition Assay. The conditions noted are these: pH 6.5; 30 °C. The method, then: as §1

Trans-2-enoyl-ACP reductase II, sequence (Q9FBC5 whole entry): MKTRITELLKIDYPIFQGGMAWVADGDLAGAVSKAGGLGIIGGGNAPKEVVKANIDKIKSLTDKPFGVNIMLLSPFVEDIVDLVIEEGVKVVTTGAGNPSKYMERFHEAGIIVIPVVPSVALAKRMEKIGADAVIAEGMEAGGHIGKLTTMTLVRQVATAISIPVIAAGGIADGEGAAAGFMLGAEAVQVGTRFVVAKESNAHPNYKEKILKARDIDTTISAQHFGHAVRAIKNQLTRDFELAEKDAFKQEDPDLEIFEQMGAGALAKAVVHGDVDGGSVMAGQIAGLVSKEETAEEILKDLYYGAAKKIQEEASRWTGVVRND

Regarding `Oc1cc(Cl)ccc1Oc1ccc(Cl)cc1Cl`, in assay [1], the IC50 was more than 30 µM.

`Cc1[nH]c2ccccc2c1CN(C)C(=O)/C=C/c1cnc2c(c1)CCC(=O)N2` [(2E)-N-methyl-N-[(2-methyl-1H-indol-3-yl)methyl]-3-(7-oxo-5,6,7,8-tetrahydro-1,8-naphthyridin-3-yl)prop-2-enamide] displayed an IC50 in assay [2] of less than 0.06 µM.

The molecule `Cc1c(CN(C)C(=O)/C=C/c2cnc3c(c2)CCC(=O)N3)c2ccccc2n1C` [(E)-N-(1,2-Dimethyl-1H-indol-3-ylmethyl)-N-methyl-3-(7-oxo-5,6,7,8-tetrahydro-1,8-naphthyridin-3-yl)acrylamide] showed an IC50 in assay [1] of more than 30 µM.

In the case of `Cc1cccc2c(CN(C)C(=O)/C=C/c3cnc4c(c3)CCC(=O)N4)c(C)n(C)c12` [(2E)-N-methyl-3-(7-oxo-5,6,7,8-tetrahydro-1,8-naphthyridin-3-yl)-N-[(1,2,7-trimethyl-1H-indol-3-yl)methyl]prop-2-enamide], the IC50 in assay [1] was more than 30 µM; in assay [2] it was less than 0.07 µM.
